How the values were obtained:
protein kinase A = test: PKA activity assay in HUVECs; format: cell-based, human; conditions: for PKA activity in endothelial cells: 10 μM PTHrP or 250 μM dibutyryl cAMP
Procedure: PKA activity was measured in HUVECs essentially as previously described in Kim et al (S. Kim et al., Amer. J. Biol. Chem., 275:33920-33928 (02000)). HUVECs were placed in suspension, allowed to attach to ECM protein coated plates in the absence or presence of anti-integrin antibodies or were treated with 10 μM PTHrP and/or 250 μM cAMP. PKA activity was measured at various times from 0-4 hrs (e.g., 2-30 min).
Plates were washed and blocked in 3% bovine serum albumin for 1 hour at 37° C. HUVECS were trypsinized and resuspended in adhesion buffer (Hanks balanced salt solution supplemented with 10 mM HEPES, pH 7.4, 2 mM MgCl2, 2 mM CaCl2, 0.2 mM MnCl2, 1% BSA. Cells were plated on matrix protein coated plates in culture medium or in the presence of 25 μg/ml anti-α5β1, anti-αvβ3 or anti-α2β1 antibodies for various times from 0 minutes to 4 hours. Plates were washed with phosphate buffered saline and cells were extracted with cold extraction buffer (50 mM Tris, pH 7.5, 5 mM EDTA, 25 μg/ml aprotinin and 25 μg/ml leupeptin). Protein Kinase A activity was assessed using a kit from Gibco BRL. Briefly, equal volumes of lysate and reaction mixture containing final concentrations of 50 mM Tris, pH 7.5, 10 mM MgCl2, 0.25 mg/ml BSA, 50 μM Kemptide (a protein kinase A substrate), 3000 Ci/mmol (γ^32 P) ATP and 100 μM ATP were combined for 5 minutes at 30° C. Total PKA in each sample was measured by performing the assay in the presence of 10 μM cAMP. Background PKA activity in test and total PKA samples were determined by performing the assay in the presence of a PKA inhibitor peptide, PKI (6-22) amide. Twenty μl samples of reaction mixtures were spotted onto phosphocellulose discs and washed repeatedly with 1% (v/v) phosphoric acid in water. Incorporated radioactivity was determined by scintillation counting. Activated PKA was calculated from the ratio of pmol/min test sample PKA to pmol/min total PKA. PKA activity in triplicate samples was measured and experiments were repeated at least three times.
In another embodiment, PKA assays were performed with a kit from Calbiochem (San Diego, Calif.). Cell lysates were incubated in ELISA plates coated with a PKA peptide substrate, then incubated with anti-phosphoserine antibodies. Bound antibody was detected after incubation with anti-rabbit IgG-horse radish peroxidase. Statistical analyses were performed using Student's t-test.

[1] = system: chick chorioallantoic membrane (CAM); test: Apoptosis markers in CAM blood vessels in vivo (Annexin V, cleaved caspases, TUNEL, DNA gels); design: species or system chicken; conditions: bFGF-stimulated CAMs
Procedure: CAM assays were performed as described (Kim et al. (2000) Am. J. Path. 156:1345-1362). Saline or bFGF stimulated CAMs were treated for 24 h with 20 μg anti-α5β1, anti-αvβ3 or control antibodies and then injected intravenously with 50 μl Annexin V-FITC. CAMs were harvested after 2 h, then analyzed by confocal microscopy. Alternatively, CAMs treated as above were excised, minced on ice, and treated with 0.1% dispase/0.1% collagenase for 1 h at 37° C. Single cell suspensions were incubated with FITC-Annexin V and analyzed as described above. bFGF stimulated CAMs were also treated with anti-α5β1 or anti-αvβ3 in the presence or absence of 500 μM caspase-3, -8 or -9 inhibitors. bFGF stimulated CAMs were also transfected with 4 μg N1-GFP, dnPKA or PKAcat expression plasmids. Freshly excised CAMs were homogenized in ice cold RIPA buffer containing protease inhibitors and immunoblotted to detect intact and cleaved caspase 3 or 8. For all treatment groups, n=10. CAMs were fixed with 3.7% paraformaldehyde prior to excision. The average number of blood vessel branch points per treatment group+/−SEM is presented. Some excised CAMs were cryopreserved, cut into 5 μm sections, immunostained with anti-cleaved caspase 3, anti-cleaved caspase 8 and anti-VFW antibodies (to detect blood vessels). CAMs were also stained by the TUNEL method to detect fragmented DNA.

HUVECS = test: Time lapse videomicroscopy of migrating endothelial cells; format: cell-based, human; conditions: 500 μM dibutyryl-cAMP, vitronectin
Procedure: 2.5-cm-diameter glass coverslips were coated with 5 μg/ml vitronectin for 1 hour at 37° C., then blocked with 3% bovine serum albumin for 2 hours. HUVECs were removed from culture dishes by trypsizination, and plated on coverslips for 48 hours. Coverslips were then placed on the microscope stage (Zeiss, Oberkochen, Germany) connected to a Charged Coupled Device (CCD) camera and viewed at a 200× magnification in bright field. Cells on the coverslips were kept at 37° C. with 5% CO2, bathed in culture media with 20 mM HEPES (pH7.4). Images were recorded using IP Lab software (Webster, N.Y.) at 1-minute intervals for 60 minutes. Dibutyryl-cAMP was then directly added into the culture medium at concentration of 500 μM. Images of cells were then recorded for an additional 60 minutes at 1-minute intervals. Cell shape and migration distance changes were quantified using IMAQ Vision Builder software (National Instruments Corporation, Austin, Tex.). Cell shape and nuclear positions were measured at 10-minute time points. Ellipse Ratio was used as a parameter for polarity. As cell shape approaches a circle, the Ellipse Ratio approaches the number one. Distance migrated was determined by measuring the distance nuclei moved in ten minute intervals. […] Images were recorded using IP Lab Spectrum software (Webster, N.Y.) at 1-minute intervals for 60 minutes. […]

[2] = after stimulation of endothelial cells

## CCCC(=O)Nc1ncnc2c1ncn2[C@@H]1O[C@@H]2COP(=O)(O)O[C@H]2[C@H]1OC(=O)CCC [dibutyryl cAMP]
Protein kinase A
  PKA activity in endothelial cells: rapidly stimulate PKA activity in endothelial cells
Protein kinase A; listed as cell permeable cAMP
  PKA activity in endothelial cells: activates PKA
Protein kinase A; [2]
  time at which PKA activation is detected: 2 min
  time of maximal PKA activity: 15 min
[1]
  endothelial cell apoptosis in vivo (TUNEL staining): induces endothelial cell apoptosis in vivo
HUVECS
  cell shape (polarity): rapidly induces a flattening of the cell shape
  endothelial cell migration (distance moved by nuclei): rapidly inhibits endothelial cell migration

Source: patent US20060241067A1, “Methods For inhibiting angiogenesis, cell migration, cell adhesion, and cell survival” (priority 2002, published 2006)
